Results as given in patent EP0025288A1, “Derivatives of monic acid, processes for their preparation, compositions containing them and their preparation” (priority 1979, dated 1981).

Key:
E coli NCTC 10418 [1] = assay: MIC, human bacteria, serial dilution in nutrient agar; assay type: cell-based; conditions: nutrient agar containing 5% 'chocolated' horse blood
E coli ESS = assay: as above; assay type: cell-based; conditions: nutrient agar containing 5% 'chocolated' horse blood
P mirabilis 889 = assay: as above; assay type: cell-based; conditions: nutrient agar containing 5% 'chocolated' horse blood
K aerogenes A = assay: as above; assay type: cell-based; conditions: nutrient agar containing 5% 'chocolated' horse blood
Ps aeruginosa 10662 = assay: as above; assay type: cell-based; conditions: nutrient agar containing 5% 'chocolated' horse blood
[2] = system: Pasteurella multocida 1633; assay: as above; assay type: cell-based; conditions: nutrient agar containing 5% 'chocolated' horse blood
[3] = system: Haemophilus influenzae Wy21; assay: as above; assay type: cell-based; conditions: nutrient agar containing 5% 'chocolated' horse blood
[4] = system: Neisseria catarrhalis 1502; assay: as above; assay type: cell-based; conditions: Neisseria catarrhalis 1502 (footnote a); nutrient agar containing 5% 'chocolated' horse blood
Bacillus subtilis 6633 = assay: as above; assay type: cell-based; conditions: nutrient agar containing 5% 'chocolated' horse blood
[5] = system: Corynebacterium zerosis 9755; assay: as above; assay type: cell-based; conditions: nutrient agar containing 5% 'chocolated' horse blood
Staph aureus Oxford [6] = assay: as above; assay type: cell-based; conditions: nutrient agar containing 5% 'chocolated' horse blood
Staph aureus Russell = assay: as above; assay type: cell-based; conditions: nutrient agar containing 5% 'chocolated' horse blood
Staph aureus W2827 = assay: as above; assay type: cell-based; conditions: nutrient agar containing 5% 'chocolated' horse blood
Strep faecalis I = assay: as above; assay type: cell-based; conditions: nutrient agar containing 5% 'chocolated' horse blood
Strep pyogenes A R80/421 = assay: as above; assay type: cell-based; conditions: Strep pyogenes A R80/421 (footnote b); nutrient agar containing 5% 'chocolated' horse blood
Strep pyogenes B 2788 = assay: as above; assay type: cell-based; conditions: nutrient agar containing 5% 'chocolated' horse blood
Strep pyogenes C 641848 = assay: as above; assay type: cell-based; conditions: Strep pyogenes C 641848 (footnote c); nutrient agar containing 5% 'chocolated' horse blood
Strep pneumoniae CN33 = assay: as above; assay type: cell-based; conditions: nutrient agar containing 5% 'chocolated' horse blood
E coli NCTC 10418 [7] = assay: MIC, veterinary bacteria; assay type: cell-based; conditions: veterinary bacteria (Table 2)
E coli E1 = assay: MIC, veterinary bacteria; assay type: cell-based; conditions: veterinary bacteria (Table 2)
S dublin S7 = assay: MIC, veterinary bacteria; assay type: cell-based; conditions: veterinary bacteria (Table 2)
S typhimurium S18 = assay: MIC, veterinary bacteria; assay type: cell-based; conditions: veterinary bacteria (Table 2)
Bord bronchiseptica BO8 = assay: MIC, veterinary bacteria; assay type: cell-based; conditions: veterinary bacteria (Table 2)
Bord bronchisptica BO9 = assay: MIC, veterinary bacteria; assay type: cell-based; conditions: veterinary bacteria (Table 2)
Past multocida PA1 = assay: MIC, veterinary bacteria; assay type: cell-based; conditions: veterinary bacteria (Table 2)
Past multocida PA2 = assay: MIC, veterinary bacteria; assay type: cell-based; conditions: veterinary bacteria (Table 2)
Past Haemolytica PA5 = assay: MIC, veterinary bacteria; assay type: cell-based; conditions: veterinary bacteria (Table 2)
[8] = system: Erysipelothrix rhusiopathiae NCTC 8163; assay: MIC, veterinary bacteria; assay type: cell-based; conditions: veterinary bacteria (Table 2)
[9] = system: Corynebacterium pyogenes CY1; assay: MIC, veterinary bacteria; assay type: cell-based; conditions: veterinary bacteria (Table 2)
[10] = system: Staph aureus B4 (pen resis); assay: MIC, veterinary bacteria; assay type: cell-based; conditions: veterinary bacteria (Table 2)
[11] = system: Staph aureus 152 (pen sens); assay: MIC, veterinary bacteria; assay type: cell-based; conditions: veterinary bacteria (Table 2)
Staph aureus Oxford [12] = assay: MIC, veterinary bacteria; assay type: cell-based; conditions: veterinary bacteria (Table 2)
[13] = system: Strep suis (group D) SPS11; assay: MIC, veterinary bacteria; assay type: cell-based; conditions: veterinary bacteria (Table 2)
Strep uberis SPU1 = assay: MIC, veterinary bacteria; assay type: cell-based; conditions: veterinary bacteria (Table 2)
Strep dysgalaciae SPD1 = assay: MIC, veterinary bacteria; assay type: cell-based; conditions: veterinary bacteria (Table 2)
Strep agalactiae SPA1 = assay: MIC, veterinary bacteria; assay type: cell-based; conditions: veterinary bacteria (Table 2)
M. suipneumoniae NB12 = assay: MIC, anti-mycoplasmal, Friis broth solidified with 0.9% agarose; assay type: cell-based; conditions: inoculum 10^3 to 10^5 C.F.U., 6 days incubation at 37°C
M. suipneumoniae JF 435 = assay: as above; assay type: cell-based; conditions: inoculum 10^3 to 10^5 C.F.U., 6 days incubation at 37°C
M. suipneumoniae HK(2) = assay: as above; assay type: cell-based; conditions: inoculum 10^3 to 10^5 C.F.U., 6 days incubation at 37°C
M. suipneumoniae Str. 11 = assay: as above; assay type: cell-based; conditions: inoculum 10^3 to 10^5 C.F.U., 6 days incubation at 37°C
[14] = system: M. suipneumoniae J2206/183b; assay: as above; assay type: cell-based; conditions: inoculum 10^3 to 10^5 C.F.U., 6 days incubation at 37°C
M. suipneumoniae MS 16 = assay: as above; assay type: cell-based; conditions: inoculum 10^3 to 10^5 C.F.U., 6 days incubation at 37°C
[15] = system: M. suipneumoniae PW/C/210; assay: as above; assay type: cell-based; conditions: inoculum 10^3 to 10^5 C.F.U., 6 days incubation at 37°C
M. suipneumoniae LABER = assay: as above; assay type: cell-based; conditions: inoculum 10^3 to 10^5 C.F.U., 6 days incubation at 37°C
M. suipneumoniae UCD 1 = assay: as above; assay type: cell-based; conditions: inoculum 10^3 to 10^5 C.F.U., 6 days incubation at 37°C
M. suipneumoniae TAM 6N = assay: as above; assay type: cell-based; conditions: inoculum 10^3 to 10^5 C.F.U., 6 days incubation at 37°C
[16] = system: M. suipneumoniae ATCC 25095; assay: as above; assay type: cell-based; conditions: inoculum 10^3 to 10^5 C.F.U., 6 days incubation at 37°C
[17] = system: M. suipneumoniae NCTC 10110; assay: as above; assay type: cell-based; conditions: inoculum 10^3 to 10^5 C.F.U., 6 days incubation at 37°C
M. hyorhinis ATCC 23234 = assay: as above; assay type: cell-based; conditions: inoculum 10^3 to 10^5 C.F.U., 6 days incubation at 37°C
M. hyorhinis ATCC 25021 = assay: as above; assay type: cell-based; conditions: inoculum 10^3 to 10^5 C.F.U., 6 days incubation at 37°C
[18] = system: M. hyosynoviae ATCC 25591; assay: as above; assay type: cell-based; conditions: inoculum 10^3 to 10^5 C.F.U., 6 days incubation at 37°C
M. bovis NCTC 10131 = assay: microbe, parasite or virus in culture; assay type: cell-based; conditions: M. bovis NCTC 10131; inoculum 10^3 to 10^5 C.F.U., 6 days incubation at 37°C
[19] = system: M. bovigenitalium ATCC 14173; assay: MIC, anti-mycoplasmal, Friis broth solidified with 0.9% agarose; assay type: cell-based; conditions: inoculum 10^3 to 10^5 C.F.U., 6 days incubation at 37°C
M. dispar NCTC 10125 = assay: as above; assay type: cell-based; conditions: inoculum 10^3 to 10^5 C.F.U., 6 days incubation at 37°C
M. gallisepticum S6 = assay: as above; assay type: cell-based; conditions: inoculum 10^3 to 10^5 C.F.U., 6 days incubation at 37°C
M. pneumoniae ATCC 15492 = assay: as above; assay type: cell-based; conditions: inoculum 10^3 to 10^5 C.F.U., 6 days incubation at 37°C
Sercina lutea 8340 = assay: MIC, human bacteria, serial dilution in nutrient agar; assay type: cell-based; conditions: nutrient agar containing 5% 'chocolated' horse blood
Strep pyogenes A 64/848 = assay: as above; assay type: cell-based; conditions: nutrient agar containing 5% 'chocolated' horse blood
Strep pyogenes C 2761 = assay: as above; assay type: cell-based; conditions: nutrient agar containing 5% 'chocolated' horse blood
pig serum = assay: Serum binding by ultrafiltration; assay type: in vitro ADME; conditions: compounds at 8 mcg/ml, microbiological assay (B. subtilis ATCC 6633)
Experimental: Serum binding was assessed by ultrafiltration of procine serum containing compounds at 8 mcg/ml, and through an Amicon CF50A ultrafiltration cone. Separation of ultrafiltrate was achieved by centrifugation.

Cyclohexan-4-onyl monate A [Example 8]
MIC (E coli NCTC 10418 [1]): >100 µm/ml
MIC (E coli ESS): 0.5 µm/ml
MIC (P mirabilis 889): 100 µm/ml
MIC (K aerogenes A): >100 µm/ml
MIC (Ps aeruginosa 10662): >100 µm/ml
MIC [2]: 0.5 µm/ml
MIC [3]: 0.1 µm/ml
MIC [4]: ^a0.5 µm/ml
MIC (Bacillus subtilis 6633): 0.5 µm/ml
MIC [5]: >100 µm/ml
MIC (Staph aureus Oxford [6]): 1.0 µm/ml
MIC (Staph aureus Russell): 2.5 µm/ml
MIC (Staph aureus W2827): 2.5 µm/ml
MIC (Strep faecalis I): 25.0 µm/ml
MIC (Strep pyogenes A R80/421): ^b0.5 µm/ml
MIC (Strep pyogenes B 2788): 0.5 µm/ml
MIC (Strep pyogenes C 641848): ^c0.5 µm/ml
MIC (Strep pneumoniae CN33): 0.5 µm/ml
MIC (E coli NCTC 10418 [7]): >80 µg/mL
MIC (E coli E1): >80 µg/mL
MIC (S dublin S7): >80 µg/mL
MIC (S typhimurium S18): >80 µg/mL
MIC (Bord bronchiseptica BO8): 80 µg/mL
MIC (Bord bronchisptica BO9): 20 µg/mL
MIC (Past multocida PA1): .312 µg/mL
MIC (Past multocida PA2): .156 µg/mL
MIC (Past Haemolytica PA5): 5 µg/mL
MIC [8]: 10 µg/mL
MIC [9]: >80 µg/mL
MIC [10]: 2.5 µg/mL
MIC [11]: 1.25 µg/mL
MIC (Staph aureus Oxford [12]): 1.25 µg/mL
MIC [13]: 2.5 µg/mL
MIC (Strep uberis SPU1): .312 µg/mL
MIC (Strep dysgalaciae SPD1): .156 µg/mL
MIC (Strep agalactiae SPA1): .625 µg/mL
in vitro MIC (M. suipneumoniae NB12): 0.25 µg/mL
in vitro MIC (M. suipneumoniae JF 435): 0.5 µg/mL
in vitro MIC (M. suipneumoniae HK(2)): 0.5 µg/mL
in vitro MIC (M. suipneumoniae Str. 11): 0.25 µg/mL
in vitro MIC [14]: 0.5 µg/mL
in vitro MIC (M. suipneumoniae MS 16): 0.25 µg/mL
in vitro MIC [15]: 0.25 µg/mL
in vitro MIC (M. suipneumoniae LABER): 0.25 µg/mL
in vitro MIC (M. suipneumoniae UCD 1): 0.5 µg/mL
in vitro MIC (M. suipneumoniae TAM 6N): 0.5 µg/mL
in vitro MIC [16]: 0.25 µg/mL
in vitro MIC [17]: 0.5 µg/mL
in vitro MIC (M. hyorhinis ATCC 23234): 0.25 µg/mL
in vitro MIC (M. hyorhinis ATCC 25021): 0.25 µg/mL
in vitro MIC [18]: 0.1 µg/mL
in vitro MIC (M. bovis NCTC 10131): 0.025 µg/mL
in vitro MIC [19]: 0.025 µg/mL
in vitro MIC (M. dispar NCTC 10125): 0.1 µg/mL
in vitro MIC (M. gallisepticum S6): 5.0 µg/mL
in vitro MIC (M. pneumoniae ATCC 15492): 1.0 µg/mL

C^yclopentan-2-onyl monate A [Example 6]
MIC (E coli NCTC 10418 [1]): >100 µm/ml
MIC (E coli ESS): 2.5 µm/ml
MIC (P mirabilis 889): 100 µm/ml
MIC (K aerogenes A): >100 µm/ml
MIC (Ps aeruginosa 10662): >100 µm/ml
MIC [2]: 1.0 µm/ml
MIC [3]: 0.5 µm/ml
MIC [4]: ^a1.0 µm/ml
MIC (Bacillus subtilis 6633): 2.5 µm/ml
MIC [5]: >100 µm/ml
MIC (Sercina lutea 8340): >100 µm/ml
MIC (Staph aureus Oxford [6]): 2.5 µm/ml
MIC (Staph aureus Russell): 5.0 µm/ml
MIC (Staph aureus W2827): 5.0 µm/ml
MIC (Strep faecalis I): >100 µm/ml
MIC (Strep pyogenes A 64/848): 2.5 µm/ml
MIC (Strep pyogenes B 2788): 5.0 µm/ml
MIC (Strep pyogenes C 2761): 5.0 µm/ml
MIC (E coli NCTC 10418 [7]): >80 µg/mL
MIC (E coli E1): >80 µg/mL
MIC (S dublin S7): >80 µg/mL
MIC (S typhimurium S18): >80 µg/mL
MIC (Bord bronchiseptica BO8): 80 µg/mL
MIC (Bord bronchisptica BO9): 20 µg/mL
MIC (Past multocida PA1): .625 µg/mL
MIC (Past multocida PA2): .312 µg/mL
MIC (Past Haemolytica PA5): 5 µg/mL
MIC [8]: >80 µg/mL
MIC [9]: >80 µg/mL
MIC [10]: 2.5 µg/mL
MIC [11]: 2.5 µg/mL
MIC (Staph aureus Oxford [12]): 2.5 µg/mL
MIC [13]: 20 µg/mL
MIC (Strep uberis SPU1): 1.25 µg/mL
MIC (Strep dysgalaciae SPD1): 1.25 µg/mL
MIC (Strep agalactiae SPA1): 2.5 µg/mL
in vitro MIC (M. suipneumoniae NB12): 2.5 µg/mL
in vitro MIC (M. suipneumoniae JF 435): 10 µg/mL
in vitro MIC (M. suipneumoniae HK(2)): 10 µg/mL
in vitro MIC (M. suipneumoniae Str. 11): 2.5 µg/mL
in vitro MIC [14]: 10 µg/mL
in vitro MIC (M. suipneumoniae MS 16): 2.5 µg/mL
in vitro MIC [15]: 2.5 µg/mL
in vitro MIC (M. suipneumoniae LABER): 2.5 µg/mL
in vitro MIC (M. suipneumoniae UCD 1): 10 µg/mL
in vitro MIC (M. suipneumoniae TAM 6N): 5.0 µg/mL
in vitro MIC [16]: 5.0 µg/mL
in vitro MIC [17]: 10 µg/mL
in vitro MIC (M. hyorhinis ATCC 23234): 2.5 µg/mL
in vitro MIC (M. hyorhinis ATCC 25021): 2.5 µg/mL
in vitro MIC [18]: 2.5 µg/mL
in vitro MIC (M. bovis NCTC 10131): 0.25 µg/mL
in vitro MIC [19]: 0.25 µg/mL
in vitro MIC (M. dispar NCTC 10125): 0.5 µg/mL
in vitro MIC (M. gallisepticum S6): >10 µg/mL
in vitro MIC (M. pneumoniae ATCC 15492): 10 µg/mL
% bound to pig serum (pig serum): 35.6%
